Measurements from patent US4742053A, “3-Isoquinoliniomethyl cephalosporin derivatives” (Banyu Pharmaceutical Co., Ltd., priority 1984, dated 1988).
Converted amounts (≈) assume the structure as drawn. Like-named read-outs stand apart in the source and are kept apart here.

What was measured:
Assay type in all cases: cell-based
[1] = system: A. calcoaceticus No. 14; test: MIC by agar plate dilution method; settings: Acinetobacter calcoaceticus, NO.14, A. calcoaceticus No. 14; 10^6 CFU/ml; read-out: Minimum Inhibitory Concentration
Procedure: (§1) The minimum inhibitory concentrations (MIC: μg/ml) of the compounds of the present invention against various microorganisms were measured by an agar plate dilution method (inoculum size: 10^6 CFU/ml) by using Sensitivity Disk Agar (Nissui) in comparison with Cefotaxime and Ceftazidime as comparative compounds.
(§2) Minimum Inhibitory Concentration (μg/ml; 10^6 CFU/ml)

[2] = system: C. freundii No. 7; test: MIC by agar plate dilution method; settings: Citrobacter freundii; C. freundii No. 7; 10^6 CFU/ml; read-out: Minimum Inhibitory Concentration
Procedure: as §1, §2

[3] = system: E. cloaceae Nek 39; test: MIC by agar plate dilution method; settings: E. cloaceae Nek 39; 10^6 CFU/ml; read-out: Minimum Inhibitory Concentration
Procedure: as §1, §2

[4] = system: E. coli C/Rms149; test: MIC by agar plate dilution method; settings: Escherichia coli, read-out: Minimum Inhibitory Concentration, E. coli C/Rms149; 10^6 CFU/ml
Procedure: as §1, §2

[5] = system: E. coli CSH2; test: MIC by agar plate dilution method; settings: Escherichia coli, 10^6 CFU/ml, read-out: Minimum Inhibitory Concentration
Procedure: as §1, §2

[6] = system: E. coli CSH; test: MIC by agar plate dilution method; settings: Escherichia coli, 10^6 CFU/ml, read-out: Minimum Inhibitory Concentration
Procedure: as §1, §2

[7] = system: E. coli ML1410/Rte16; test: MIC by agar plate dilution method; settings: Escherichia coli, ML1410/RTE16, read-out: Minimum Inhibitory Concentration, E. coli ML1410/Rte16; 10^6 CFU/ml
Procedure: as §1, §2

[8] = system: E. coli NIHJJC-2; test: MIC by agar plate dilution method; settings: Escherichia coli, NIHJJC2, E. coli NIHJJC-2; 10^6 CFU/ml; read-out: Minimum Inhibitory Concentration
Procedure: as §1, §2

[9] = system: E. coli W3630/Rms212; test: MIC by agar plate dilution method; settings: Escherichia coli, W3630/RMS212, read-out: Minimum Inhibitory Concentration, E. coli W3630/Rms212; 10^6 CFU/ml
Procedure: as §1, §2

[10] = system: E. coli W3630/Rms213; test: MIC by agar plate dilution method; settings: Escherichia coli, W3630/RMS213, read-out: Minimum Inhibitory Concentration, E. coli W3630/Rms213; 10^6 CFU/ml
Procedure: as §1, §2

[11] = system: K. pneumoniae No. 42; test: MIC by agar plate dilution method; settings: Klebsiella pneumoniae; K. pneumoniae No. 42; 10^6 CFU/ml; read-out: Minimum Inhibitory Concentration
Procedure: as §1, §2

[12] = system: P. aeruginosa AK109; test: MIC by agar plate dilution method; settings: Pseudomonas aeruginosa, AK109, P. aeruginosa AK109; 10^6 CFU/ml; read-out: Minimum Inhibitory Concentration
Procedure: as §1, §2

[13] = system: P. aeruginosa AKR17; test: MIC by agar plate dilution method; settings: Pseudomonas aeruginosa, AKR17, P. aeruginosa AKR17; 10^6 CFU/ml; read-out: Minimum Inhibitory Concentration
Procedure: as §1, §2

[14] = system: P. cepacia 23; test: MIC by agar plate dilution method; settings: Burkholderia cepacia; P. cepacia 23; 10^6 CFU/ml; read-out: Minimum Inhibitory Concentration
Procedure: as §1, §2

[15] = system: P. maltophilia IID 1275; test: MIC by agar plate dilution method; settings: Stenotrophomonas maltophilia, IID1275; P. maltophilia IID 1275; 10^6 CFU/ml; read-out: Minimum Inhibitory Concentration
Procedure: as §1, §2

[16] = system: P. mirabilis JY10; test: MIC by agar plate dilution method; settings: Proteus mirabilis
Procedure: as §1, §2

[17] = system: P. vulgaris No. 33; test: MIC by agar plate dilution method; settings: Proteus vulgaris
Procedure: as §1, §2

[18] = system: P. vulgaris OB1043; test: MIC by agar plate dilution method; settings: Proteus vulgaris, OB1043, P. vulgaris OB1043; 10^6 CFU/ml; read-out: Minimum Inhibitory Concentration
Procedure: as §1, §2

[19] = system: S. aureus JS-1; test: MIC by agar plate dilution method; settings: Staphylococcus aureus, JS1; S. aureus JS-1; 10^6 CFU/ml; read-out: Minimum Inhibitory Concentration
Procedure: as §1, §2

[20] = system: S. aureus NIHJJC-1; test: MIC by agar plate dilution method; settings: Staphylococcus aureus, NIHJJC1, S. aureus NIHJJC-1; 10^6 CFU/ml; read-out: Minimum Inhibitory Concentration
Procedure: as §1, §2

[21] = system: S. marcescens No. 16-2; test: MIC by agar plate dilution method; settings: Serratia marcescens
Procedure: as §1, §2

[22] = system: E. coli NIHJ; test: bioautography (TLC); settings: TLC Merck silica gel F254, E. coli NIHJ
Procedure: 2.5 mg of the compound obtained in Example 4 (C) was suspended in 0.5 ml of methanol, and 35 μl of concentrated aqueous ammonia was added thereto. The mixture was left to stand at room temperature for 1 hour. […] The fraction of this peak was separated and freeze-dried to obtain 1 mg of the above identified compound.

[23] = P. mirabilis JY10, 10^6 CFU/ml, read-out: Minimum Inhibitory Concentration
[24] = NO.162, S. marcescens No. 16-2, 10^6 CFU/ml, read-out: Minimum Inhibitory Concentration
[25] = P. vulgaris No. 33, 10^6 CFU/ml, read-out: Minimum Inhibitory Concentration

C[N+]1(CC2=C(C(=O)[O-])N3C(=O)C(NC(=O)C(=NOC4(C(=O)O)CCC4)c4csc(N)n4)C3SC2)CCc2cc(O)c(O)cc2C1 (stereo not drawn) [Ex. 19, 7-[(Z)-2-(2-aminothiazol-4-yl)-2-(1-carboxy-1-cyclobutoxyimiino)acetamide]-3-(6,7-dihydroxy-2-methyl-1,2,3,4-tetrahydro2-isoquinolinium)methyl-3-cephem-4-carboxylate]
MIC [1]: 0.2 µg/mL (≈ 0.304 µM) | MIC [2]: 0.78 µg/mL (≈ 1.18 µM) | MIC [3]: 0.1 µg/mL (≈ 0.152 µM) | MIC [4]: 0.025 µg/mL (≈ 0.038 µM) | MIC [5]: 0.05 µg/mL (≈ 0.0759 µM) | MIC [6]: 0.05 µg/mL (≈ 0.0759 µM) | MIC [7]: 0.025 µg/mL (≈ 0.038 µM) | MIC [8]: 0.05 µg/mL (≈ 0.0759 µM) | MIC [9]: 0.025 µg/mL (≈ 0.038 µM) | MIC [10]: 0.025 µg/mL (≈ 0.038 µM) | MIC [11]: 0.05 µg/mL (≈ 0.0759 µM) | MIC [12]: 0.025 µg/mL (≈ 0.038 µM) | MIC [13]: 0.1 µg/mL (≈ 0.152 µM) | MIC [14]: 0.0125 µg/mL (≈ 0.019 µM) | MIC [15]: 3.12 µg/mL (≈ 4.74 µM) | MIC [16, 23]: 0.1 µg/mL (≈ 0.152 µM) | MIC ([17]; NO.33, read-out: Minimum Inhibitory Concentration): 0.05 µg/mL (≈ 0.0759 µM) | MIC [18]: 0.05 µg/mL (≈ 0.0759 µM) | MIC [19]: 100 µg/mL (≈ 152 µM) | MIC [20]: 25 µg/mL (≈ 38 µM) | MIC [21, 24]: 0.39 µg/mL (≈ 0.592 µM)

CC(C)ON=C(C(=O)NC1C(=O)N2C(C(=O)[O-])=C(C[N+]3(C)CCc4cc(O)c(O)cc4C3)CSC12)c1csc(N)n1 (stereo not drawn) [Ex. 13, 7-[(Z)-2-(2-aminothiazol-4-yl)-2-isopropoxyiminoacetamido]-3-(6,7-dihydroxy-2-methyl-1,2,3,4-tetrahydro-2-isoquinolinium)methyl-3-cephem-4-carboxylate]
MIC [1]: 0.2 µg/mL (≈ 0.332 µM) | MIC [2]: 3.12 µg/mL (≈ 5.18 µM) | MIC [3]: 0.006 µg/mL (≈ 0.00996 µM) | MIC [4]: 0.025 µg/mL (≈ 0.0415 µM) | MIC [5]: 0.05 µg/mL (≈ 0.083 µM) | MIC [6]: 0.05 µg/mL (≈ 0.083 µM) | MIC [7]: 0.025 µg/mL (≈ 0.0415 µM) | MIC [8]: 0.05 µg/mL (≈ 0.083 µM) | MIC [9]: 0.0125 µg/mL (≈ 0.0207 µM) | MIC [10]: 0.05 µg/mL (≈ 0.083 µM) | MIC [11]: 0.1 µg/mL (≈ 0.166 µM) | MIC [12]: 0.05 µg/mL (≈ 0.083 µM) | MIC [13]: 0.2 µg/mL (≈ 0.332 µM) | MIC [14]: 0.05 µg/mL (≈ 0.083 µM) | MIC [15]: 12.5 µg/mL (≈ 20.7 µM) | MIC ([16]; JY10, read-out: Minimum Inhibitory Concentration): 0.39 µg/mL (≈ 0.647 µM) | MIC [17, 25]: 0.1 µg/mL (≈ 0.166 µM) | MIC [18]: 0.2 µg/mL (≈ 0.332 µM) | MIC [19]: 12.5 µg/mL (≈ 20.7 µM) | MIC [20]: 3.12 µg/mL (≈ 5.18 µM) | MIC ([21]; NO.162, read-out: Minimum Inhibitory Concentration): 1.56 µg/mL (≈ 2.59 µM)

CO/N=C(\C(=O)NC1C(=O)N2C(C(=O)[O-])=C(C[N+]3(C)CCc4cc(OC(C)=O)c(OC(C)=O)cc4C3)CSC12)c1csc(N)n1 (stereo not drawn) [Ex. 4-C, 7-[(Z)-2-(2-aminothiazol-4-yl)-2-methoxyiminoacetamido]-3-(6,7-diacetoxy-2-methyl-1,2,3,4-tetrahydro-2-isoquinolinium)methyl-3-cephem-4-carboxylate]
MIC [1]: 0.39 µg/mL (≈ 0.592 µM) | MIC [2]: 6.25 µg/mL (≈ 9.49 µM) | MIC [3]: ≤ 0.05 µg/mL | MIC [4]: ≤ 0.1 µg/mL | MIC [5]: 0.1 µg/mL (≈ 0.152 µM) | MIC [6]: 1.56 µg/mL (≈ 2.37 µM) | MIC [7]: 0.1 µg/mL (≈ 0.152 µM) | MIC [8]: < 0.05 µg/mL | MIC [9]: ≤ 0.05 µg/mL | MIC [10]: 1.56 µg/mL (≈ 2.37 µM) | MIC [11]: 0.2 µg/mL (≈ 0.304 µM) | MIC [12]: 0.1 µg/mL (≈ 0.152 µM) | MIC [13]: 1.56 µg/mL (≈ 2.37 µM) | MIC [14]: 0.78 µg/mL (≈ 1.18 µM) | MIC [16, 23]: 0.78 µg/mL (≈ 1.18 µM) | MIC [17, 25]: 0.2 µg/mL (≈ 0.304 µM) | MIC [18]: 1.56 µg/mL (≈ 2.37 µM) | MIC [19]: 25 µg/mL (≈ 38 µM) | MIC [20]: 3.12 µg/mL (≈ 4.74 µM) | MIC [21, 24]: 6.25 µg/mL (≈ 9.49 µM) | antibacterial spot in bioautography [22]: the antibacterial spot of the starting material was at Rf=0.4
